Source: ChEMBL document CHEMBL1201862, “PubChem BioAssay data set” (2004)
The source made the active and inactive calls.

What was measured:
[1] = target: Alkaline phosphatase, placental type (Homo sapiens, UniProt P05187); experiment: PLAP enzyme inhibitors, confirmation, biochemical, luminescence (AID 1512); format: functional
[2] = target: T1, Alkaline phosphatase, tissue-nonspecific isozyme (Homo sapiens, UniProt P05186); experiment: human TNAP enzyme inhibitors, SAR follow-up, biochemical, luminescent, dose response (AID 1056)
T1 sequence (P05186 whole entry): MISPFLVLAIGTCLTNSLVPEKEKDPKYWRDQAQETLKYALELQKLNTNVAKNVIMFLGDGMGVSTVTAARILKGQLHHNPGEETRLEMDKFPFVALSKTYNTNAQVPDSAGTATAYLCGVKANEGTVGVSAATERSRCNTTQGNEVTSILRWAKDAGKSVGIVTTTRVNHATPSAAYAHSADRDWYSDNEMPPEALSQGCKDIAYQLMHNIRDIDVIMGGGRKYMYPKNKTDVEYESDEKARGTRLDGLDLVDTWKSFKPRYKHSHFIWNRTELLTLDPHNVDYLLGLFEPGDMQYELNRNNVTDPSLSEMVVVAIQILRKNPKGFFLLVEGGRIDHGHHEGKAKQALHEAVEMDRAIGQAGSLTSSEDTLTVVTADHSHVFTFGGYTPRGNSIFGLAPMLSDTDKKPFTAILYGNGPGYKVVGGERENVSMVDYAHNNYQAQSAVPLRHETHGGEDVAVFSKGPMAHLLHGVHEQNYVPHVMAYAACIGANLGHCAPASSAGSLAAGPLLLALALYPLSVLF

[3] = target: Glucose-6-phosphate 1-dehydrogenase (Homo sapiens, UniProt P11413); experiment: human G6PD enzyme inhibitors, dose response, selectivity assay for P. falciparum G6PD inhibitor project, biochemical, fluorescence (AID 504792); format: functional
Chain of Glucose-6-phosphate 1-dehydrogenase (P11413 whole entry): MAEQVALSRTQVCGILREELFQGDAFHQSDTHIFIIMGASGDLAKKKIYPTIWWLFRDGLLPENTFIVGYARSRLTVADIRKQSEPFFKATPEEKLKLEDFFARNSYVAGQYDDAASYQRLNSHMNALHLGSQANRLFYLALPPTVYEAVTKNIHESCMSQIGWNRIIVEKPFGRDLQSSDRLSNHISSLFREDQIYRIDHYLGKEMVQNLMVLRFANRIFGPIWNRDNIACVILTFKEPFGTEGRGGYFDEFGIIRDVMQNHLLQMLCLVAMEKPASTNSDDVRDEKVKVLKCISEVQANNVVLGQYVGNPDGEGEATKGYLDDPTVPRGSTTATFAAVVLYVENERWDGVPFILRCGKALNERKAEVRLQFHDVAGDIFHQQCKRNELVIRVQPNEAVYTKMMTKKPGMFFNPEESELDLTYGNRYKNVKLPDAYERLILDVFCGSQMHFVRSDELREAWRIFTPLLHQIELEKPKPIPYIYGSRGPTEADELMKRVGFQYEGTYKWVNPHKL

Hexokinase = Hexokinase (Trypanosoma brucei, UniProt Q38C41); experiment: Confirmation assay for inhibitors of Trypanosoma brucei hexokinase 1-Analogue-first series. [Related pubchem assays (depositor defined):AID1430, AID1632, AID2516, AID2560, AID2579, AID2600, AID449725, AID492951]; format: functional
Chain of Hexokinase (Q38C41 whole entry, the tested form may be a part): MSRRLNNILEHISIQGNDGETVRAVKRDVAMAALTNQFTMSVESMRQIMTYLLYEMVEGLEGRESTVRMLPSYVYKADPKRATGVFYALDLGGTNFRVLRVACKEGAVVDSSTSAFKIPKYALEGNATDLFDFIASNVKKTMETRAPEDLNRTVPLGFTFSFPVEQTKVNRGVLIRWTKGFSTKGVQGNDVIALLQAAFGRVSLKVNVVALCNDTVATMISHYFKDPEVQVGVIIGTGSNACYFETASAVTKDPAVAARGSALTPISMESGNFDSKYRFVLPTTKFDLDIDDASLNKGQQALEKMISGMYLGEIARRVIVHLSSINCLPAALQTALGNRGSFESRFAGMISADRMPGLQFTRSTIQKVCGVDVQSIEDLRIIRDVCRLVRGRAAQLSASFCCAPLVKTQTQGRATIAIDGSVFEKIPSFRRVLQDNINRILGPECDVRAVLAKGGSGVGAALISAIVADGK

[4] = Fluorescence-based cell-based high throughput dose response assay for inhibitors of the interaction of nucleotide-binding oligomerization domain containing 2 (NOD2) and the receptor-interacting serine-threonine kinase 2 (RIPK2).; format: functional; conditions: Homo sapiens
[5] = target: T2, Mannose-6-phosphate isomerase (Homo sapiens, UniProt P34949); experiment: PMI enzyme inhibitors, confirmation, biochemical, fluorescence intensity (AID 1535)
T2 sequence (P34949 whole entry): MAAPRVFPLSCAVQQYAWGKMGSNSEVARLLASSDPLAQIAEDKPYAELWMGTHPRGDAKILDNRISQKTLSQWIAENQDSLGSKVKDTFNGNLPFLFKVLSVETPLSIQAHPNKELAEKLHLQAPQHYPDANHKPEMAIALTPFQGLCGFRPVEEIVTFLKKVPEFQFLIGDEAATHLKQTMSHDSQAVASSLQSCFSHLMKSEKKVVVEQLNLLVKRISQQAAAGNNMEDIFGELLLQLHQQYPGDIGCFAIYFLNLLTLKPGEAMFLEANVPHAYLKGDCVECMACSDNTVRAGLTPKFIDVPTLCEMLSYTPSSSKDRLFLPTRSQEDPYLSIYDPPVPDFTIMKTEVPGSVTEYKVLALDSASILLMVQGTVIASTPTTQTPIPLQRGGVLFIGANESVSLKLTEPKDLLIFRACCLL

Phosphomannomutase 2 = Phosphomannomutase 2 (Homo sapiens, UniProt O15305); experiment: Counter screen SAR assay for PMM2 inhibitors via a fluorescence intensity assay. [Related pubchem assays (depositor defined):AID1545, AID1574]
Chain of Phosphomannomutase 2 (O15305 whole entry): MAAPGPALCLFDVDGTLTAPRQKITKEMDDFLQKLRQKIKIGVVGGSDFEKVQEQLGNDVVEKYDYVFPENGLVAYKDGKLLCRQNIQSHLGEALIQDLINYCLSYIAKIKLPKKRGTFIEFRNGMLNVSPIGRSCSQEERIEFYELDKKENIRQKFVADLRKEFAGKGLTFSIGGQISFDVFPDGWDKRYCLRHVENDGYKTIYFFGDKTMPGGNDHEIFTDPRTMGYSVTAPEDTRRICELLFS

[6] = target: Voltage-dependent T-type calcium channel subunit alpha-1H (Homo sapiens, UniProt O95180); experiment: Cav3.2 T-type channel inhibitors, cell-based, synthetic library set 1, calcium flux (AID 493022); format: functional
[7] = target: Eukaryotic translation initiation factor 4H (Homo sapiens, UniProt Q15056); experiment: eIF4H inhibition in translation initiation, SAR follow-up (AID 435011); format: functional
cells = format: functional, cell-based
[8] = cytotoxicity in HEK-293T cells, dose response, cytotoxicity control for TCR NF-kB inhibitor project, luminescence, T-cell screen hits (AID 489026); format: functional, cell-based;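 further: cells exposed to compound about 14 hours before the viability readout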
[9] = inhibitors of SNCA 5'UTR-driven reporter translation, confirmation, H4 neuroglioma cells, luminescence (AID 1988); format: functional, cell-based
[10] = inhibitors of SNCA 5'UTR-driven translation, confirmation, luminescence, H4 neuroglioblastoma cells, dose confirmation (AID 2454); format: functional, cell-based;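 further: H4 neuroglioblastoma cells carrying an alpha-synuclein 5'UTR luciferase reporter; potency for inhibition of the luciferase signal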
[11] = inhibitors of firefly luciferase expression or activity, dose response, H4 neuroglioma cells, luminescence (AID 1990); format: functional, cell-based
[12] = luciferase reporter signal reduction – luminescence, H4-C neuroglioblastoma cells, dose response (AID 2458); format: functional, cell-based;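 further: H4 neuroglioblastoma cells stably carrying a luciferase reporter gene fusion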
[13] = Luminescence Cell-Based Dose Response HTS to Identify Inhibitors of 5'UTR Stem-Loop Driven Prion Protein mRNA Translation in H4 Neuroglioblastoma Cells. [Related pubchem assays: 1827 (Project Summary), 1813 (Primary HTS)]; format: functional
H9c2 = experiment: cells; format: functional, cell-based; conditions: Rattus norvegicus, H9c2, Myocardium;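 further: confirmatory concentration-response retest of ultra-high-throughput screening hits for modulation of myocardial damage; cell death induced by hydrogen peroxide oxidative stress; compound pretreatment for 60 min then peroxide exposure for 2 h; potency is for protecting the cells against peroxide damage rather than for killing them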
[14] = target: Intestinal-type alkaline phosphatase (Homo sapiens, UniProt P09923); experiment: Dose Response confirmation of uHTS hits from a small molecule inhibitors of human intestinal alkaline phosphatase via a luminescent assay. [Related pubchem assays (depositor defined):AID2544, AID2574]; format: functional
Chain of Intestinal-type alkaline phosphatase (P09923 whole entry): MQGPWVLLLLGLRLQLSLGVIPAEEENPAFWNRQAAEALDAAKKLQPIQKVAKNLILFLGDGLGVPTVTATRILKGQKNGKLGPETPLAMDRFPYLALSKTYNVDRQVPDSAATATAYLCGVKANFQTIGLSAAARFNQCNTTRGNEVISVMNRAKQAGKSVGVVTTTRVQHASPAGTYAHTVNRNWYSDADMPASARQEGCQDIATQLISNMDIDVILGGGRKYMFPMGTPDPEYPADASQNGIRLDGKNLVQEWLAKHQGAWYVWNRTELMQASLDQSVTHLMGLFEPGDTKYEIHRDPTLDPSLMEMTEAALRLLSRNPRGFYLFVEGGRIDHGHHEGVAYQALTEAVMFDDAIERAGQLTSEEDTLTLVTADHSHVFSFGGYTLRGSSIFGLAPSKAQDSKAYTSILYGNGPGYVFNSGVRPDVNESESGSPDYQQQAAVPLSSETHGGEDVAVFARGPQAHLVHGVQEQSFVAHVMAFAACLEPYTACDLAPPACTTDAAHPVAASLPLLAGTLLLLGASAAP

Streptokinase A = target: T3, Streptokinase A (Streptococcus pyogenes serotype M1, UniProt P10520); experiment: S. pyogenes streptokinase expression inhibitors, potency, dose response, plasminogen activation absorbance, OD405 (AID 1914); format: functional, Streptococcus pyogenes M1 GAS;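 further: secreted streptokinase activity via plasminogen activation per viability signal from cell pellet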
T3 sequence (P10520 whole entry): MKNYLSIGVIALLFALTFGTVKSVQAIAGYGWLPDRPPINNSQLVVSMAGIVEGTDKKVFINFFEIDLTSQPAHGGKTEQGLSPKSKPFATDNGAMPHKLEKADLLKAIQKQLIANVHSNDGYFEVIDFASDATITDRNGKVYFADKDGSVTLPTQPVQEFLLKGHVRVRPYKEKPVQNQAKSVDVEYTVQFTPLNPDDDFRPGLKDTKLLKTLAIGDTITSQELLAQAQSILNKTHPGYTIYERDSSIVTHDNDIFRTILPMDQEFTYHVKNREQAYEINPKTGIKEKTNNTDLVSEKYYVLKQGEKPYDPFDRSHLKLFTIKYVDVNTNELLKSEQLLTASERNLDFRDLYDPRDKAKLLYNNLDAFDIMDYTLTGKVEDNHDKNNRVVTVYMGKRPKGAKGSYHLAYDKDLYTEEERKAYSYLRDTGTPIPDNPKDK

[15] = target: T4, Replicative DNA helicase DnaB (Mycobacterium tuberculosis, UniProt P9WMR3); experiment: DnaB intein splicing inhibitors, dose response, biochemical, cell-free fluorescence (AID 449749); format: functional
T4 sequence (P9WMR3 whole entry): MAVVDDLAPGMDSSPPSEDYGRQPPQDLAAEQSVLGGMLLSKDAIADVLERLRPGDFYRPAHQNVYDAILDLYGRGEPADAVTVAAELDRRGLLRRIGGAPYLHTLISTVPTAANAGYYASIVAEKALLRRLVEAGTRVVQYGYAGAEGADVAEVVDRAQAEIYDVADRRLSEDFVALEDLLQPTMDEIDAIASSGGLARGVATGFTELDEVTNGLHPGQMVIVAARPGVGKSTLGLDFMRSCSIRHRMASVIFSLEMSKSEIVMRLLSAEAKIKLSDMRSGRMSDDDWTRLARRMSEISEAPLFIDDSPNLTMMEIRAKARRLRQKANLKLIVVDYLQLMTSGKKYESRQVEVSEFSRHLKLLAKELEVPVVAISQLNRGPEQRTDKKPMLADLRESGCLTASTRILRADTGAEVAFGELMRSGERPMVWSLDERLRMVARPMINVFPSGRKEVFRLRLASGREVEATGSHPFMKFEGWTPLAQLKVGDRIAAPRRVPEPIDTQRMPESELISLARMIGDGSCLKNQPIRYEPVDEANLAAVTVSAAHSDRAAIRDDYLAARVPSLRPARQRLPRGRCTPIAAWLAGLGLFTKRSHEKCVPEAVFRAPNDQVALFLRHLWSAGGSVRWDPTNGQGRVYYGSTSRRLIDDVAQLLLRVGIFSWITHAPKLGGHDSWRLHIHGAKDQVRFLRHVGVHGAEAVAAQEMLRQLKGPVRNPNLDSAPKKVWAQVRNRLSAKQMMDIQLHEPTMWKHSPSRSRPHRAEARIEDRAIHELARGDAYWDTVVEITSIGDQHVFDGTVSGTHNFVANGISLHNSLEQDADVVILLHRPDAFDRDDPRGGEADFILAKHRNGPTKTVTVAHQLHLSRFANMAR

Streptococcus = experiment: Group A Streptococcus viability loss, dose response, counter-screen for streptokinase expression inhibitor project, luminescence, BacTiterGlo (AID 1915); format: functional, organism-based;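 further: potency for reduction of bacterial viability or growth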
[16] = tested on: Streptococcus sp. 'group A'; experiment: growth inhibition of control SK(-) GAS strain, dose response, counter-screen for streptokinase expression inhibitor project, luminescence, kanamycin, BacTiterGlo, confirmation (AID 1900); format: functional, organism-based
Protein RecA = target: T5, Protein RecA (Mycobacterium tuberculosis, UniProt P9WHJ3); experiment: Fluorescence Cell-Free Homogeneous Dose Retest to Identify Inhibitors of RecA-Intein Splicing Activity. [Related pubchem assays (depositor defined):AID2097, AID2223, AID489010, AID492950]; format: functional
T5 sequence (P9WHJ3 whole entry): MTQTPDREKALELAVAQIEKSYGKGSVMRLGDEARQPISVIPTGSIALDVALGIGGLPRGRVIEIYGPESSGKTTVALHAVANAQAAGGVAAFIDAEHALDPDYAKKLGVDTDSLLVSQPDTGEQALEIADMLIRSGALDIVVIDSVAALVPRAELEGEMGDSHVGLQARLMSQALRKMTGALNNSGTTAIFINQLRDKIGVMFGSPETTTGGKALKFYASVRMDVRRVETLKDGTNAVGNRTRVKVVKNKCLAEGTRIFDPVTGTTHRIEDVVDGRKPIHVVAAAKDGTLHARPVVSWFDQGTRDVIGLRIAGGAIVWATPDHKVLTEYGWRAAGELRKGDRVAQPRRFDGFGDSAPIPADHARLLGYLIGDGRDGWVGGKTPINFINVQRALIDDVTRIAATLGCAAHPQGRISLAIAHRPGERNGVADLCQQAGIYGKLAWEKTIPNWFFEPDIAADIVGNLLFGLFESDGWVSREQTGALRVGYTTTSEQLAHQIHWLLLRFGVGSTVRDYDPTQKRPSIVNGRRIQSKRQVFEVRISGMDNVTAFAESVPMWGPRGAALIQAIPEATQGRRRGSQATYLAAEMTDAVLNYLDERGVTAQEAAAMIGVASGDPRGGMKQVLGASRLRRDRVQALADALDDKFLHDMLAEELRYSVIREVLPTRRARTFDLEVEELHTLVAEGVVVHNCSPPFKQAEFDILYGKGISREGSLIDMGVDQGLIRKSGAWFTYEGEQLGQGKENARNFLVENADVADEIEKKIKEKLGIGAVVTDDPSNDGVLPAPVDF

[17] = HEp-2 cell cytotoxicity, dose response, cytotoxicity control for RSV inhibitor project, HTS (AID 2410); format: functional; conditions: human respiratory syncytial virus
[18] = target: G-protein coupled receptor 55 (Homo sapiens, UniProt Q9Y2T6); experiment: GPR55 antagonists blocking LPI-driven arrestin recruitment, primary screen, imaging, U2OS, beta-arrestin-GFP, LPI agonist (AID 2013); format: functional;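 further: antagonist potency measured as reduced agonist-driven arrestin aggregation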
Chain of G-protein coupled receptor 55 (Q9Y2T6 whole entry): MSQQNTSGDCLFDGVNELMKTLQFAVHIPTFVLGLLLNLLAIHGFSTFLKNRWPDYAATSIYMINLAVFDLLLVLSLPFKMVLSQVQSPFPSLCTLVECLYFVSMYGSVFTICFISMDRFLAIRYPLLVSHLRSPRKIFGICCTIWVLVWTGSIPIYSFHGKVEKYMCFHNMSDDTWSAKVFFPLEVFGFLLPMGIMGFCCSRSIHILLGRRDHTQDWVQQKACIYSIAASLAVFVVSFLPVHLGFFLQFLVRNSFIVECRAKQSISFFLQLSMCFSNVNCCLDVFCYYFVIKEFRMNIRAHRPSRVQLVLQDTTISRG

[19] = target: Delta-type opioid receptor (Homo sapiens, UniProt P41143); experiment: SAR Analysis of Agonists of the DOR Receptor using an Image-Based Assay - Set 3. [Related pubchem assays (depositor defined):AID1777, AID1786]; format: functional
Chain of Delta-type opioid receptor (P41143 whole entry): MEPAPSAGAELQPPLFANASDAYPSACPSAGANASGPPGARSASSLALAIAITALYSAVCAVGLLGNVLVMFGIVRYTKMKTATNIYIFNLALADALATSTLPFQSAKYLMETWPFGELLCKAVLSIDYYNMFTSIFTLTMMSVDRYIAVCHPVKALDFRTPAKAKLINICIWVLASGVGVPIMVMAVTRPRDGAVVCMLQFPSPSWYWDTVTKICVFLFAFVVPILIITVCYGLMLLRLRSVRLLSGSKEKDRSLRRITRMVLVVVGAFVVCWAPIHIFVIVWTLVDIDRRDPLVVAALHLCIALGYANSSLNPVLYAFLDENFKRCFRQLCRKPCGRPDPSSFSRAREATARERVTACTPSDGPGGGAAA

Mu-type opioid receptor = Mu-type opioid receptor (Homo sapiens, UniProt P35372); experiment: SAR Analysis of Agonists of the MOR Receptor using an Image-Based Assay - Set 3. [Related pubchem assays (depositor defined):AID1777, AID1785, AID1786, AID1966, AID2133, AID2136, AID2284, AID2285, AID2352]; format: functional
Chain of Mu-type opioid receptor (P35372 whole entry): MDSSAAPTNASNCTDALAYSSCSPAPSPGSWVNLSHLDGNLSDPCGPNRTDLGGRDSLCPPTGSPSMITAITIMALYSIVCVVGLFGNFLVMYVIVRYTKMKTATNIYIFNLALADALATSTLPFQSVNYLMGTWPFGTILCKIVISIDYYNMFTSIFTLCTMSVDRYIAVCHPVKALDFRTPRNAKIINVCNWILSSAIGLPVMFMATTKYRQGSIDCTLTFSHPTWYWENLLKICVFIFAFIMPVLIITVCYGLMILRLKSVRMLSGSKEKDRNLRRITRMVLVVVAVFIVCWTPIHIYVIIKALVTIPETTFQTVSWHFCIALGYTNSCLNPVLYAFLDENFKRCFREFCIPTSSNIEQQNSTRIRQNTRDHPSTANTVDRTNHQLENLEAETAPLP

[20] = target: Kappa-type opioid receptor (Homo sapiens, UniProt P41145); experiment: SAR analysis of small molecule agonists of the kappa opioid receptor via a luminescent beta-arrestin assay - Set 3. [Related pubchem assays (depositor defined):AID1777, AID1785, AID1786, AID1966, AID2133, AID2136, AID2284, AID2500]; format: functional
Chain of Kappa-type opioid receptor (P41145 whole entry): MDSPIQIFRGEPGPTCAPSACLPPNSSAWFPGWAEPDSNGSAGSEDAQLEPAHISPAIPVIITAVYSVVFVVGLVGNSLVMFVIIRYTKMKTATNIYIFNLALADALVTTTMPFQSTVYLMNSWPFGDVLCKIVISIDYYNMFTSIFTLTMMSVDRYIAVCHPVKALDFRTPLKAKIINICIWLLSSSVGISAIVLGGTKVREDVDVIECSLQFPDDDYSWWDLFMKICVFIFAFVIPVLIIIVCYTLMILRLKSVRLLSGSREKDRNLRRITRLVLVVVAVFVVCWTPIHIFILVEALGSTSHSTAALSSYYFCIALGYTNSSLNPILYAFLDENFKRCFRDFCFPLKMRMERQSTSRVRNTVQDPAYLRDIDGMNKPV

Chain of Alkaline phosphatase, placental type (P05187 whole entry): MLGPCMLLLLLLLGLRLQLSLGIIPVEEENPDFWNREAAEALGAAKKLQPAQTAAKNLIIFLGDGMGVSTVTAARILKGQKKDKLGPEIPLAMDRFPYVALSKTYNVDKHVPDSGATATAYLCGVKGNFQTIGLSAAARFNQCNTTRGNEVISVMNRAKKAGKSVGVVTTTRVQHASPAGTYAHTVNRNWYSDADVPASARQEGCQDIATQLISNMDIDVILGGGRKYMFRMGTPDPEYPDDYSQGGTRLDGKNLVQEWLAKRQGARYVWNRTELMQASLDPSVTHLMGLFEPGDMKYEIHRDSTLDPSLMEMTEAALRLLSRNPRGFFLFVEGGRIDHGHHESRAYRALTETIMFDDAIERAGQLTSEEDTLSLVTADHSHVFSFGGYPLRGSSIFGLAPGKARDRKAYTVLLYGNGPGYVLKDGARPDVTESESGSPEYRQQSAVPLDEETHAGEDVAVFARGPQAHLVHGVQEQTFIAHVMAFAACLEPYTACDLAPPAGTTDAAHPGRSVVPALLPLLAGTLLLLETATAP

For O=c1c2[nH]c3ccc(F)cc3c2ncn1CCc1ccc(O)c(O)c1, the IC50 [1] was 1.04 µM (active) and the IC50 [2] was 0.253 µM (active).

For O=C(Cn1sc2ccccc2c1=O)Nc1ccc(Br)cc1, the IC50 [3] was 24.2 µM (inactive), the IC50 (Hexokinase) was > 25 µM (inactive) and the IC50 [4] was 10.2 µM (inactive).

In the case of Clc1nss/c1=N\C1CCC1, the IC50 [5] is reported as 15.6 µM (active) and the IC50 (Phosphomannomutase 2) is reported as 76.3 µM (active).

In the case of O=C(COc1ccc(F)cc1Cl)Nc1nnc(-c2ccc3c(c2)CCCC3)o1, the EC50 [6] is reported as 10 µM (active).

For Cc1ccc(N2C(=O)c3cccc4c(N)ccc(c34)C2=O)c2cccnc12, the IC50 [7] was > 100 µM (inactive), the EC50 (cells) was 0.101 µM (active) and the IC50 [8] was > 80 µM (inactive). The EC50 [9] was < 0.1 µM (active), the EC50 [10] was 0.124 µM (active) and the EC50 [11] was < 0.1 µM (active). For the same compound, the EC50 [12] was 0.111 µM (active) and the EC50 [13] was < 0.1 µM (active).

With CC(=O)CCc1ccc(Oc2nc(-c3cccnc3)nc3ccccc23)cc1 the IC50 (H9c2) was > 79 µM (inactive) and the IC50 [14] was > 100 µM (inactive).

With c1ccc(-c2nc(N3CCCCCC3)nc(-n3ccnc3)n2)cc1 the EC50 (Streptokinase A) was > 150 µM (not active), the AC50 [15] was 63.8 µM (active) and the EC50 (Streptococcus) was 7.9 µM (active). For the same compound, the EC50 [16] was 4.08 µM (active), the EC50 (Protein RecA) was > 380 µM (inactive) and the CC50 [17] was 20.1 µM (active). For the same compound, the IC50 [18] was 3.77 µM (active).

For Cc1ccccc1CSc1nnc(-c2ccccn2)n1Cc1cccs1, the EC50 [19] was > 32 µM (inactive), the EC50 (Mu-type opioid receptor) was > 32 µM (inactive) and the EC50 [20] was 14.7 µM (inactive).
